One assay relates to Bbs1M390R/M390R mice. Conditions: cited from earlier work.
The test system of assay [1] is Bbs12 depleted retinal explants (photoreceptor apoptosis, ONL). Nature of the assay: TUNEL assay, apoptotic rate of photoreceptors in shRNA-treated retinal explants. It is filed as cell-based, mouse. As to conditions: shBbs12 explants; single treatments 2 mM VPA, 25 μM GBZ, 10 μM INH; 33% without treatment. As to the method:
(§1) Wild-type animals were on a C57BL/6 background. The retinal explant culture procedure was carried out as previously described (Reidel et al., 2006). Briefly, 15-day-old mice were sacrificed by decapitation and eyes were removed and incubated in trypsin (catalog #25200-072, Gibco, Invitrogen, Paris, France) for 10 min at 37° C. Digestion was stopped by transferring eyes in DMEM+10% fetal bovine serum (catalog #31885-023 and 10500-064, Gibco) and incubation for 10 min at 4° C. Eyes were dissected in Ame's medium (catalog#15230-097, Gibco) supplemented with 6.5 g/L glucose. First, the sclera was carefully removed, leaving the retinal pigmented epithelium (RPE) attached to the eyeball. Incisions were made at the edge of the cornea to remove the cornea, lens and hyaloid body. Then four radial incisions were made in the retina to obtain a cross shape. Retinas were transferred on a nitrocellulose culture membrane (catalog # PICMORG50, Millipore, Molsheim, France) with RPE side down and cultivated in Neurobasal A medium (catalog #108888-022, Gibco) supplemented with B27 supplement (catalog #17504-044, Gibco), L-glutamine (catalog #35050-061, Gibco) and penicillin/streptomycin (catalog #15240; Gibco). Explants were maintained at 37° C. humidified 5% CO2. Specific gene silencing using lentiviruses carrying shRNA sequences for Bbs12, Perk, Hri or Rhodopsin (Santa Cruz Biotechnology, Tebu Bio, Yvelines, France) were performed by adding 20 μl of viral suspension (1×10^5 infectious units) in the culture medium overnight before whole medium change. The infected explants were then cultured for 3 days with a half medium change on a daily basis. Explants were not maintained longer in culture to avoid unspecific apoptosis in the different retinal layers. […] Drugs were added simultaneously with viral infection to the culture medium.
For immunofluorescence experiments and TUNEL assay retinal explants were fixed directly on membranes with Formalin 10% for 1 hour at 4° C. Sucrose impregnation was then performed using 10%, 20% and 30% sucrose baths, 20 min each. Explants were transferred to OCT (catalog #4583, Tissue-Tek, Sakura, Villeneuve d′Ascq, France) in mold and frozen in liquid nitrogen. 8 μm thin cryosections were mounted on StarFrost slides (catalog # VS1117, Waldemar Knittel Glasbearbeitungs, Braunschweig, Germany).
Sections or cells were washed with PBS 1× and shortly fixated with Formalin 10% solution for 5 minutes and washed three times with PBS 1×. […] The prevalence of apoptotic nuclei was expressed as the ratio of TUNEL-positive nuclei and DAPI-stained nuclei in three different areas of the ONL per experiment. […]

The next assay deals with peIF2α, CHOP10 and BiP. Description: Western blot of UPR proteins in retinal explants. It is filed as cell-based, mouse. Conditions: shRNA-treated retinal explants. As to the method:
as §1
Proteins were obtained by lysis in RIPA buffer (150 mM NaCl, 50 mM TrisHCl pH 8, 0.1% Tween20, catalog # P7653, T3253, 93773, Sigma-Aldrich) supplemented with Protease Inhibitors Complete Mini EDTA-free (catalog #11836 170001, Roche, Boullogne-Billancourt, France), 1 mM NaVO4 and 25 mM NaF (catalog # S6508 and S7920, Sigma-Aldrich). After retina dissociation using dounce homogenizer, samples were sonicated and protein concentration was determined using Bradford reagent (catalog #500-0006, BioRad). For Western blotting, 80 μg of whole protein extracts were loaded per lane and Ponceau S staining was used as loading control for signal quantification. Antibody binding was visualized using SuperSignal West Femto Maximum Sensitivity Substrate (catalog #34095, ThermoFisher) on a Versadoc apparitus, BioRad. Signal quantification was assed using QuantityOne software from BioRad.
Background: In western blotting, separated proteins are transferred to a membrane and probed.

We go through two molecules from patent US9636377B2, “Compositions and methods for the treatment of retinal degeneration” (UNIVERSITE DE STRASBOURG, priority 2012, dated 2017).

*: point of attachment. Cbz = O=C(OCc1ccccc1)*; CH2F = FC*

On to `C[C@H](CCC(=O)NCCS(=O)(=O)O)[C@H]1CC[C@H]2[C@@H]3[C@@H](O)C[C@@H]4C[C@H](O)CC[C@]4(C)[C@H]3CC[C@]12C` [TUDCA, tauroursodeoxycholic acid], for which, in the assay with Bbs1M390R/M390R mice, the retinal thickness result was “induced retinal thickening”.

Take “Z-Ala-Thr-Ala-Asp(O-methyl)-fluoromethyl-ketone (Cbz-ATAD(OMe)-CH2F; SMILES COC(=O)C[C@H](NC(=O)[C@H](C)NC(=O)[C@@H](NC(=O)[C@H](C)NC(=O)OCc1ccccc1)[C@@H](C)O)C(=O)CF) [INH, Promokine]”: in assay [1], the “apoptotic rate (proportion of apoptotic photoreceptor nucleus)” value is on record as 23%. Further, in the assay with peIF2α, CHOP10 and BiP, the CHOP10 protein content result is “decrease” and the “eIF2α phosphorylation (peIF2α), protein level” value was “decrease”.
